# Tests used:
# Type in all cases: functional, cell-based
# [1] = target: T1, Solute carrier organic anion transporter family member 1A1 (Rattus norvegicus, UniProt P46720); assay: TP_TRANSPORTER: inhibition of Taurocholate uptake (Taurocholate: 0.5 uM, Pravastatin: 50 uM) in Oatp1-expressing 293c18 cells; details: human, hek293-ebna
# T1 sequence (P46720 whole entry): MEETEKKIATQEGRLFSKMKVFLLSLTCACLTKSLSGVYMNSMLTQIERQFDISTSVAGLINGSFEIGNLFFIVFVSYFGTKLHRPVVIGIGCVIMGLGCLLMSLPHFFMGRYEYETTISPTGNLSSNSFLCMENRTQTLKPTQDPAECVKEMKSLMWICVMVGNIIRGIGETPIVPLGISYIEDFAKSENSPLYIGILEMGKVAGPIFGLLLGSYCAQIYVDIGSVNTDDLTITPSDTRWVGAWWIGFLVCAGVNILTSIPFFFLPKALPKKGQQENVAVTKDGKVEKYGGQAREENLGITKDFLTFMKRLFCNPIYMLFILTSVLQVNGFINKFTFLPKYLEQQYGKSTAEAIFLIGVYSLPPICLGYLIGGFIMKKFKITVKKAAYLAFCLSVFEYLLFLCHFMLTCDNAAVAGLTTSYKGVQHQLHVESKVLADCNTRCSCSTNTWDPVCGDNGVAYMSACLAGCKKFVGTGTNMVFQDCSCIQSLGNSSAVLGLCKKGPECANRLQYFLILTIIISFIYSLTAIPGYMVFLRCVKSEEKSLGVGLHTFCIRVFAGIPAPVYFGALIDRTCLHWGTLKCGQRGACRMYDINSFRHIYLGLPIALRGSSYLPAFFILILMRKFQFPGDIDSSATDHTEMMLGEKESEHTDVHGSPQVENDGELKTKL
# [2] = target: T2, Solute carrier organic anion transporter family member 1A2 (Homo sapiens, UniProt P46721); assay: TP_TRANSPORTER: uptake in OATP-A-expressing 293c18 cell; details: hek293-ebna
# T2 sequence (P46721 whole entry): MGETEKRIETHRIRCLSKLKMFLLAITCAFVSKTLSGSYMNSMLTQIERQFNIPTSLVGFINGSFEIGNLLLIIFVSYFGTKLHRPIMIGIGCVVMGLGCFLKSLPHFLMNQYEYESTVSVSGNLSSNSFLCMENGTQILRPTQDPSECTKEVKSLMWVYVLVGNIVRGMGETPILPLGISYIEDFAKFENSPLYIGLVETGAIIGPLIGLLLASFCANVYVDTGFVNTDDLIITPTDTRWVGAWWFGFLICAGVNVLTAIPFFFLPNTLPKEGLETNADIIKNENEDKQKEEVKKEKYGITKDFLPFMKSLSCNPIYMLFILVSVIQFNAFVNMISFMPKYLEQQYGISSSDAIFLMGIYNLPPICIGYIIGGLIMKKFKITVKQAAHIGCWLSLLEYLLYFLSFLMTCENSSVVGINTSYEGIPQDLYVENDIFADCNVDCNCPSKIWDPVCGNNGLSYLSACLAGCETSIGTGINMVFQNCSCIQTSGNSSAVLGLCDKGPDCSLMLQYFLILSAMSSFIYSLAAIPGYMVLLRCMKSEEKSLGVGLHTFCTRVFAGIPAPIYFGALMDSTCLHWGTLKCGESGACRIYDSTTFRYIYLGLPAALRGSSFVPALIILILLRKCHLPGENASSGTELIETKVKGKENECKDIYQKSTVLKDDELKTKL
# [3] = target: T3, Solute carrier organic anion transporter family member 1A4 (Rattus norvegicus, UniProt O35913); assay: TP_TRANSPORTER: uptake in Oatp2-expressing 293c18 cells; details: human, hek293-ebna
# T3 sequence (O35913 whole entry): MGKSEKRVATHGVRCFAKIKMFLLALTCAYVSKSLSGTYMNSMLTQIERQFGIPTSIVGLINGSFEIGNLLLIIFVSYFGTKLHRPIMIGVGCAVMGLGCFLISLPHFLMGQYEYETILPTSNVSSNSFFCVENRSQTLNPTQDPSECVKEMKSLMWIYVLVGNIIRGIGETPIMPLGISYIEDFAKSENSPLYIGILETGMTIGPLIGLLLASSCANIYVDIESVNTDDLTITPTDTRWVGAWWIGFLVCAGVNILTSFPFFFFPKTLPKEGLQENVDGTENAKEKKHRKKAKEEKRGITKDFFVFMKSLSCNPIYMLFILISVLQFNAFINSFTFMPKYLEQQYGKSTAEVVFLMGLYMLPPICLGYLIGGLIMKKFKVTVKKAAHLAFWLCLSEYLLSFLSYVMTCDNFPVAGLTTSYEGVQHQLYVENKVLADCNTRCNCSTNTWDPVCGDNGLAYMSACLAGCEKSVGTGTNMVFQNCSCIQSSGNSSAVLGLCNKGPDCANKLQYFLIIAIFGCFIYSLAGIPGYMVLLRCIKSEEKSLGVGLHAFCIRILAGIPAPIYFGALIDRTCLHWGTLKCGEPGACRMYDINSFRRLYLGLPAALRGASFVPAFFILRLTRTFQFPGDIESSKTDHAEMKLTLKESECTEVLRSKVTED
compound,measurement,setting,value
CC[C@H](C)C(=O)O[C@H]1C[C@H](O)C=C2C=C[C@H](C)[C@H](CC[C@@H](O)C[C@@H](O)CC(=O)O)[C@H]21 [PRAVASTATIN],Activity,[1],inhibitor [+]
same,Activity,[2],is not a substrate [-]
same,Activity,[3],is not a substrate [-]

# — ChEMBL document CHEMBL2073936, “A novel human hepatic organic anion transporting polypeptide (OATP2). Identification of a liver-specific human organic anion transporting polypeptide and identification of rat and human hydroxymethylglutaryl-CoA reductase inhibitor transporters” (J Biol Chem, 1999)
